{"source": "patent US20200181104A1", "about": "“SSAO INHIBITORS AND USES THEREOF” (METACRINE, INC., priority 2018, published 2020)", "note": "Structures can show the parent of a compound that is named as a salt.", "data": [{"target": "T1, Recombinant Human SSAO/VAP-1/AOC3 (Homo sapiens, UniProt Q16853)", "T1 construct": "purchased R&D systems 3957-AO", "T1 sequence (Q16853 1-763)": "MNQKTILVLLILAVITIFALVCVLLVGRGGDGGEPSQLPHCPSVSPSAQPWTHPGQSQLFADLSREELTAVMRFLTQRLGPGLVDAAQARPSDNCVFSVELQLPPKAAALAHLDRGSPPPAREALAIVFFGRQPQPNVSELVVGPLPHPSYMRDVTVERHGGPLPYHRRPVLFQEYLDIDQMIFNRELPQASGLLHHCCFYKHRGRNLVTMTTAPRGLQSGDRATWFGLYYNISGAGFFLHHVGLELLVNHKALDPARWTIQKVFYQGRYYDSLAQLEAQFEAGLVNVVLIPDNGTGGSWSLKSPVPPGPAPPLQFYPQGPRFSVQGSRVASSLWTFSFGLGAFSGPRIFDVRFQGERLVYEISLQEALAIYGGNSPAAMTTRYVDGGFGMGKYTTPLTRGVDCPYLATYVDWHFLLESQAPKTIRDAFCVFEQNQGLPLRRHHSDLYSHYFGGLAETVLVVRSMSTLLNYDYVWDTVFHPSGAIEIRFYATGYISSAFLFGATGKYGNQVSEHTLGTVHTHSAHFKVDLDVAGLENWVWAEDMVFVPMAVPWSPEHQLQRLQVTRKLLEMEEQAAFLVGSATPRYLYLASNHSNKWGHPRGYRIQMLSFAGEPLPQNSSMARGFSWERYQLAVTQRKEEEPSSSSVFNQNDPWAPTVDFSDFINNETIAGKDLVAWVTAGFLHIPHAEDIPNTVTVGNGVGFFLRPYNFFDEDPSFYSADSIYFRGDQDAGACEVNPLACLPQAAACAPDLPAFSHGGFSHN", "test": "Human Semicarbazide-Sensitive Amine Oxidase (SSAO) Assay", "format": "biochemical", "conditions": "recombinant enzyme, 30 minutes preincubation at 37° C., benzylamine substrate, Amplex Ultra Red/HRP fluorescence", "method": "Compounds were dissolved in DMSO to provide a Concentration Response Curve (CRC; at 500 times the final concentration) over a range of 6-10 dilutions.\nRecombinant Human SSAO/VAP-1/AOC3 (R&D systems; Catalog #3957-AO) was used to screen compound potency in vitro, according to previously described methods (J Pharmacol Exp Ther. 2013 November; 347(2):365-74). SSAO enzyme was suspended in 50 mM HEPES buffer to a working concentration of 2.5 μg/ml and 40 μL of this enzyme mixture was then added to each well of a F16 Black Maxisorp 96 well Plate (Nunc, Catalog #475515). Ten microliters of each test compound (at 5 times the final concentration) were added to each well, resulting in a final well volume of 50 μL of the enzyme and inhibitor mixture. The compounds were preincubated with the enzyme for 30 minutes at 37° C., prior to the addition of a 40 μL volume of Amplex Ultra Red (125 uM AUR; Molecular Probes, Catalog # A36006)/Horseradish peroxidase (2.5 U/ml HRP; Sigma-Aldrich Catalog # P8375) oxidase detection reagent containing cytochrome C ([…]; Sigma-Aldrich Catalog # C7752). Cytochrome C was included in the AUR/HRP detection mixture to reduce the background fluorescence that can occur via the spontaneous redox reaction between AUR and HRP. The SSAO enzyme reaction was then initiated by adding 10 μL of the SSAO substrate, benzylamine (Sigma-Aldrich Catalog # B5136), and SSAO activity was measured in kinetic mode over a 30-120 minute sampling period (excit. 544 nm; emit 590 nm; cut off 570 nm; medium gain) to obtain IC50 values for enzyme activity in each treatment well.", "units": {"IC50": "nM"}, "values": [{"molecule": "CNC(=O)[C@H]1C2CC3CC1C[C@@](c1ccc(OC/C(=C/F)CN)cc1)(C3)C2", "note": "(single isomer, unassigned) [Compound 6, anti-5-(4-(((E)-2-(Aminomethyl)-3-fluoroallyl)oxy)phenyl)-N-methyladamantane-2-carboxamide Hydrochloride]", "IC50": "≤ 10"}, {"molecule": "CNC(=O)[C@H]1C2CC3CC1C[C@](c1ccc(OC/C(=C/F)CN)cc1)(C3)C2", "note": "(single isomer, unassigned) [Compound 6.01, syn-5-(4-(((E)-2-(Aminomethyl)-3-fluoroallyl)oxy)phenyl)-N-methyladamantane-2-carboxamide Hydrochloride]", "IC50": "≤ 10"}, {"molecule": "NC/C(=C\\F)COc1ccc([C@]23CC4CC(C2)[C@@H](C(=O)NC2CCOCC2)C(C4)C3)cc1", "note": "(single isomer, unassigned) [Compound 6.02, syn-5-(4-(((E)-2-(Aminomethyl)-3-fluoroallyl)oxy)phenyl)-N-(tetrahydro-2H-pyran-4-yl)adamantane-2-carboxamide Hydrochloride]", "IC50": "≤ 10"}, {"molecule": "NC/C(=C\\F)COc1ccc([C@]23CC4CC(C2)[C@H](C(=O)NC2CCOCC2)C(C4)C3)cc1", "note": "(single isomer, unassigned) [Compound 6.03, anti-5-(4-(((E)-2-(Aminomethyl)-3-fluoroallyl)oxy)phenyl)-N-(tetrahydro-2H-pyran-4-yl)adamantane-2-carboxamide Hydrochloride]", "IC50": "≤ 10"}, {"molecule": "NC/C(=C\\F)COc1ccc(C23CCC(C(=O)NC4[C@H]5COC[C@H]45)(CC2)CC3)cc1", "note": "(stereo in doubt) [Compound 2.66, 4-(4-(((E)-2-(aminomethyl)-3-fluoroallyl)oxy)phenyl)-N-((1R,5S,6s)-3-oxabicyclo[3.1.0]hexan-6-yl)bicyclo[2.2.2]octane-1-carboxamide]", "IC50": "≤ 10"}, {"molecule": "NC/C(=C\\F)COc1ccc(C23CCC(C(=O)NC4[C@H]5COC[C@H]45)(CC2)CC3)cc1", "note": "(stereo in doubt) [Compound 2.70, 4-(4-(((E)-2-(aminomethyl)-3-fluoroallyl)oxy)phenyl)-N-((1R,5S,6r)-3-oxabicyclo[3.1.0]hexan-6-yl)bicyclo[2.2.2]octane-1-carboxamide]", "IC50": "≤ 10"}, {"molecule": "CO[C@@H]1CCCC(NC(=O)C23CCC(c4ccc(OC/C(=C/F)CN)cc4)(CC2)CC3)C1", "note": "(stereo in doubt) [Compound 2.115, 4-(4-(((E)-2-(aminomethyl)-3-fluoroallyl)oxy)phenyl)-N-((1S,3R)-3-methoxycyclohexyl)bicyclo [2.2.2]octane-1-carboxamide]", "IC50": "≤ 10"}, {"molecule": "NC/C(=C\\F)COc1ccc(C2(C(N)=O)CCCCC2)cc1", "note": "[Compound 1, (E)-1-(4-((2-(Aminomethyl)-3-fluoroallyl)oxy)phenyl)cyclohexanecarboxamide Hydrochloride]", "IC50": "≤ 10"}, {"molecule": "CNC(=O)C1(c2ccc(OC/C(=C/F)CN)cc2)CCCCC1", "note": "[Compound 1.01, (E)-1-(4-((2-(Aminomethyl)-3-fluoroallyl)oxy)phenyl)-N-methylcyclohexanecarboxamide]", "IC50": "10 to 100"}, {"molecule": "CNC(=O)C12CCC(c3ccc(OC/C(=C/F)CN)c(C)c3)(CC1)CC2", "note": "[Compound 2, (E)-4-(4-((2-(aminomethyl)-3-fluoroallyl)oxy)-3-methylphenyl)-N-methylbicyclo[2.2.2]octane-1-carboxamide]", "IC50": "≤ 10"}, {"molecule": "CNC(=O)C12CCC(c3ccc(OC/C(=C\\F)CN)c(C)c3)(CC1)CC2", "note": "[Compound 2.01, (Z)-4-(4-((2-(aminomethyl)-3-fluoroallyl)oxy)-3-methylphenyl)-N-methylbicyclo[2.2.2]octane-1-carboxamide]", "IC50": "≤ 10"}, {"molecule": "Cc1cc(C23CCC(C(N)=O)(CC2)CC3)ccc1OC/C(=C/F)CN", "note": "[Compound 2.02, (E)-4-(4-((2-(aminomethyl)-3-fluoroallyl)oxy)-3-methylphenyl)bicyclo[2.2.2] octane-1-carboxamide]", "IC50": "≤ 10"}, {"molecule": "CNC(=O)C12CCC(c3ccc(OC/C(=C/F)CN)cc3)(CC1)CC2", "note": "[Compound 2.03, (E)-4-(4-((2-(aminomethyl)-3-fluoroallyl)oxy)phenyl)-N-methylbicyclo[2.2.2]octane-1-carboxamide Hydrochloride]", "IC50": "≤ 10"}, {"molecule": "COC(=O)C12CCC(c3ccc(OC/C(=C/F)CN)cc3)(CC1)CC2", "note": "[Compound 2.04, (E)-methyl 4-(4-((2-(aminomethyl)-3-fluoroallyl)oxy)phenyl)bicyclo [2.2.2]octane-1-carboxylate]", "IC50": "≤ 10"}, {"molecule": "NC/C(=C\\F)COc1ccc(C23CCC(C(=O)O)(CC2)CC3)cc1", "note": "[Compound 2.05, (E)-4-(4-((2-(amino-methyl)-3-fluoroallyl)oxy)phenyl) bicyclo[2.2.2]octane-1-carboxylic acid]", "IC50": "10 to 100"}, {"molecule": "NC/C(=C\\F)COc1ccc(C23CCC(C(=O)NC4CCOCC4)(CC2)CC3)cc1", "note": "[Compound 2.06, (E)-4-(4-((2-(Aminomethyl)-3-fluoroallyl)oxy)phenyl)-N-(tetrahydro-2H-pyran-4-yl)bicyclo[2.2.2]octane-1-carboxamide Hydrochloride]", "IC50": "≤ 10"}, {"molecule": "NC/C(=C/F)COc1ccc(C23CCC(C(=O)NC4CCOCC4)(CC2)CC3)cc1", "note": "[Compound 2.06b, (Z)-4-(4-((2-(amino-methyl)-3-fluoroally)oxy)phenyl)-N-(tetrahydro-2H-pyran-4-yl)bicyclo[2.2.2]octane-1-carboxamide]", "IC50": "≤ 10"}, {"molecule": "NC/C(=C\\F)COc1ccc(C23CCC(C(=O)N4CCOCC4)(CC2)CC3)cc1", "note": "[Compound 2.07]", "IC50": "≤ 10"}, {"molecule": "NC/C(=C\\F)COc1ccc(C23CCC(C(=O)NCCC(=O)O)(CC2)CC3)cc1", "note": "[Compound 2.08, (E)-3-(4-(4-((2-(aminomethyl)-3-fluoroallyl)oxy)phenyl)bicyclo[2.2.2]octane-1-carboxamido)propanoic acid]", "IC50": "≤ 10"}, {"molecule": "NC/C(=C\\F)COc1ccc(C23CCC(C(=O)NCc4nnn[nH]4)(CC2)CC3)cc1", "note": "[Compound 2.09, (E)-N-((1H-tetrazol-5-yl)methyl)-4-(4-((2-(aminomethyl)-3-fluoroallyl)oxy)phenyl) bicyclo[2.2.2]octane-1-carboxamide]", "IC50": "≤ 10"}, {"molecule": "NC/C(=C\\F)COc1ccc(C23CCC(C(N)=O)(CC2)CC3)cc1", "note": "[Compound 2.10, (E)-4-(4-((2-(aminomethyl)-3-fluoroallyl)oxy)phenyl) bicyclo[2.2.2]octane-1-carboxamide]", "IC50": "≤ 10"}, {"molecule": "NC/C(=C\\F)COc1ccc(C23CCC(C(=O)NCCc4nnn[nH]4)(CC2)CC3)cc1", "note": "[Compound 2.11, (E)-N-(2-(1H-tetrazol-5-yl)ethyl)-4-(4-((2-(aminomethyl)-3-fluoroallyl)oxy)phenyl) bicyclo[2.2.2]octane-1-carboxamide]", "IC50": "≤ 10"}, {"molecule": "COC(=O)C1CCN(C(=O)C23CCC(c4ccc(OC/C(=C/F)CN)cc4)(CC2)CC3)CC1", "note": "[Compound 2.12, (E)-methyl 1-(4-(4-((2-(aminomethyl)-3-fluoroallyl)oxy)phenyl)bicyclo[2.2.2]octane-1-carbonyl)piperidine-4-carboxylate]", "IC50": "≤ 10"}, {"molecule": "NC/C(=C\\F)COc1ccc(C23CCC(C(=O)N4CC(C(=O)O)C4)(CC2)CC3)cc1", "note": "[Compound 2.13, (E)-1-(4-(4-((2-(aminomethyl)-3-fluoroallyl)oxy)phenyl)bicyclo[2.2.2]octane-1-carbonyl)azetidine-3-carboxylic acid]", "IC50": "≤ 10"}, {"molecule": "NC/C(=C\\F)COc1ccc(C23CCC(C(=O)N4CCC(O)CC4)(CC2)CC3)cc1", "note": "[Compound 2.14, (E)-(4-(4-((2-(aminomethyl)-3-fluoroallyl)oxy)phenyl)bicyclo[2.2.2]octan-1-yl) (4-hydroxypiperidin-1-yl)methanone]", "IC50": "≤ 10"}, {"molecule": "COCCNC(=O)C12CCC(c3ccc(OC/C(=C/F)CN)cc3)(CC1)CC2", "note": "[Compound 2.15, (E)-4-(4-((2-(aminomethyl)-3-fluoroallyl)oxy)phenyl)-N-(2-methoxyethyl) bicyclo[2.2.2] octane-1-carboxamide]", "IC50": "≤ 10"}]}]}
